Measured values taken from ChEMBL document CHEMBL1148838, “Synthesis and antibacterial evaluation of a novel series of rifabutin-like spirorifamycins” (2007).
≈ marks a conversion by molar mass, not a printed value.

Legend:
Assay type in all cases: functional
[1] = system: Staphylococcus aureus; experiment: Antibacterial activity against rifamycin-sensitive Staphylococcus aureus CB190
[2] = system: Staphylococcus aureus; experiment: Antibacterial activity against rifamycin-resistant Staphylococcus aureus CB370 with rpoB His481Tyr mutation
[3] = system: Staphylococcus aureus; experiment: Antibacterial activity against intermediate rifamycin-resistant Staphylococcus aureus CB372 with rpoB Asp471Tyr mutation
[4] = system: Staphylococcus aureus; experiment: Antibacterial activity against Staphylococcus aureus ATCC 6538 induced-septicemia in sc dosed mouse; settings: ATCC 6538, sc
[5] = system: Staphylococcus aureus; experiment: Antibacterial activity against Staphylococcus aureus ATCC 6538 induced-septicemia in po dosed mouse; settings: ATCC 6538, po

SMILES	MIC [1] [µg/mL]	MIC [2] [µg/mL]	MIC [3] [µg/mL]	ED50 [4] [mg/kg]	ED50 [5] [mg/kg]
CO[C@H]1/C=C/O[C@@]2(C)Oc3c(C)c(O)c4c(c3C2=O)C2=NC3(CCN(Cc5ccccc5)CC3)CNC2=C(NC(=O)/C(C)=C\C=C\[C@H](C)[C@H](O)[C@@H](C)[C@@H](O)[C@@H](C)[C@H](OC(C)=O)[C@@H]1C)C4=O	0.003 (≈ 0.00335 µM)	32 (≈ 35.8 µM)	1.95 (≈ 2.18 µM)		
CO[C@H]1/C=C/O[C@@]2(C)Oc3c(C)c(O)c4c(c3C2=O)C2=NC3(CCN(CC(C)C)CC3)CNC2=C(NC(=O)/C(C)=C\C=C\[C@H](C)[C@H](O)[C@@H](C)[C@@H](O)[C@@H](C)[C@H](OC(C)=O)[C@@H]1C)C4=O	0.063 (≈ 0.0732 µM)	> 62.5	7.81 (≈ 9.07 µM)	0.6	< 0.1
CO[C@H]1/C=C/O[C@@]2(C)Oc3c(C)c(O)c4c(c3C2=O)C2=NC3(CCN(Cc5cnc6ccccc6c5)CC3)CNC2=C(NC(=O)/C(C)=C\C=C\[C@H](C)[C@H](O)[C@@H](C)[C@@H](O)[C@@H](C)[C@H](OC(C)=O)[C@@H]1C)C4=O	0.063 (≈ 0.0666 µM)	15.6 (≈ 16.5 µM)	0.98 (≈ 1.04 µM)	0.6	5
CO[C@H]1/C=C/O[C@@]2(C)Oc3c(C)c(O)c4c(c3C2=O)C2=NC3(CCN(C(=O)OC(C)(C)C)CC3)CNC2=C(NC(=O)/C(C)=C\C=C\[C@H](C)[C@H](O)[C@@H](C)[C@@H](O)[C@@H](C)[C@H](OC(C)=O)[C@@H]1C)C4=O	0.026 (≈ 0.0287 µM)	> 62.5	7.81 (≈ 8.63 µM)		
CO[C@H]1/C=C/O[C@@]2(C)Oc3c(C)c(O)c4c(c3C2=O)C2=NC3(CCN(CC(C)C)CC3)NC2=C(NC(=O)/C(C)=C\C=C\[C@H](C)[C@H](O)[C@@H](C)[C@@H](O)[C@@H](C)[C@H](OC(C)=O)[C@@H]1C)C4=O [RIFABUTIN]	0.031 (≈ 0.0366 µM)	> 62.5	15.6 (≈ 18.4 µM)	< 0.1	0.6
CO[C@H]1/C=C/O[C@@]2(C)Oc3c(C)c(O)c4c(c3C2=O)C2=NC3(CCN(C)CC3)CNC2=C(NC(=O)/C(C)=C\C=C\[C@H](C)[C@H](O)[C@@H](C)[C@@H](O)[C@@H](C)[C@H](OC(C)=O)[C@@H]1C)C4=O	0.016 (≈ 0.0195 µM)	> 62.5	1.95 (≈ 2.38 µM)	0.3	> 10
CO[C@H]1/C=C/O[C@@]2(C)Oc3c(C)c(O)c4c(c3C2=O)C2=NC3(CCN(Cc5cnc6ccccc6c5)C3)CNC2=C(NC(=O)/C(C)=C\C=C\[C@H](C)[C@H](O)[C@@H](C)[C@@H](O)[C@@H](C)[C@H](OC(C)=O)[C@@H]1C)C4=O (some centres undefined)	0.063 (≈ 0.0676 µM)	> 62.5	7.81 (≈ 8.38 µM)		
CO[C@H]1/C=C/O[C@@]2(C)Oc3c(C)c(O)c4c(c3C2=O)C2=NC3(CCN(C)C3)CNC2=C(NC(=O)/C(C)=C\C=C\[C@H](C)[C@H](O)[C@@H](C)[C@@H](O)[C@@H](C)[C@H](OC(C)=O)[C@@H]1C)C4=O (some centres undefined)	0.013 (≈ 0.0162 µM)	> 62.5	0.98 (≈ 1.22 µM)		
CO[C@H]1/C=C/O[C@@]2(C)Oc3c(C)c(O)c4c(c3C2=O)C2=NC3(CCN(C(=O)OC(C)(C)C)C3)CNC2=C(NC(=O)/C(C)=C\C=C\[C@H](C)[C@H](O)[C@@H](C)[C@@H](O)[C@@H](C)[C@H](OC(C)=O)[C@@H]1C)C4=O (some centres undefined)	0.016 (≈ 0.018 µM)	> 62.5	7.81 (≈ 8.77 µM)		
C=CCN1CCC2(CC1)CNC1=C3NC(=O)/C(C)=C\C=C\[C@H](C)[C@H](O)[C@@H](C)[C@@H](O)[C@@H](C)[C@H](OC(C)=O)[C@H](C)[C@@H](OC)/C=C/O[C@@]4(C)Oc5c(C)c(O)c(c(c5C4=O)C1=N2)C3=O	0.006 (≈ 0.0071 µM)	> 62.5	15.6 (≈ 18.5 µM)		
CO[C@H]1/C=C/O[C@@]2(C)Oc3c(C)c(O)c4c(c3C2=O)C2=NC3(CCN(CC(C)C)C3)CNC2=C(NC(=O)/C(C)=C\C=C\[C@H](C)[C@H](O)[C@@H](C)[C@@H](O)[C@@H](C)[C@H](OC(C)=O)[C@@H]1C)C4=O (some centres undefined)	0.063 (≈ 0.0744 µM)	31.3 (≈ 37 µM)	> 62.5		
CO[C@H]1/C=C/O[C@@]2(C)Oc3c(C)c(O)c4c(c3C2=O)C2=NC3(CCN(Cc5ccccc5)C3)CNC2=C(NC(=O)/C(C)=C\C=C\[C@H](C)[C@H](O)[C@@H](C)[C@@H](O)[C@@H](C)[C@H](OC(C)=O)[C@@H]1C)C4=O (some centres undefined)	0.031 (≈ 0.0352 µM)	> 62.5	3.91 (≈ 4.44 µM)		
